Source: US20100267561A1, “HERBICIDAL PYRIDAZINONE DERIVATIVES” (priority 2007, published 2010)

Key:
Assay type in all cases: in vivo
[1] = system: large crabgrass (Digitaria sanguinalis); assay: Test B pre-/postemergence plant response; conditions: for Crabgrass, Large plant response rating: 8 g ai/ha
Procedure, shortened: (§1)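 Visual scoring from 0 (no effect) to 100 (complete control) against untreated controls was done 13 to 15 days after greenhouse treatment. Chemicals were formulated in a surfactant-containing non-phytotoxic solvent and applied to soil preemergence or to 1- to 4-leaf (2-18 cm) plants postemergence.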

[2] = system: wheat (Triticum aestivum); assay: Test B pre-/postemergence plant response; conditions: for Wheat plant response rating: 8 g ai/ha
Procedure, shortened: as §1

soybean (Glycine max) = assay: Test B pre-/postemergence plant response
Procedure, shortened: as §1

corn (Zea mays) = assay: Test B pre-/postemergence plant response; conditions: for Corn plant response rating: 8 g ai/ha
Procedure, shortened: as §1

[3] = system: cocklebur (Xanthium strumarium); assay: Test B pre-/postemergence plant response; conditions: for Cocklebur plant response rating: 8 g ai/ha
Procedure, shortened: as §1

[4] = system: common (oilseed) sunflower (Helianthus annuus); assay: Test B pre-/postemergence plant response; conditions: Preemergence
Procedure, shortened: as §1

[5] = system: surinam grass (Brachiaria decumbens); assay: Test B pre-/postemergence plant response; conditions: for Surinam Grass plant response rating: 8 g ai/ha
Procedure, shortened: as §1

[6] = system: lambsquarters (Chenopodium album); assay: Test B pre-/postemergence plant response; conditions: for Lambsquarters plant response rating: 8 g ai/ha
Procedure, shortened: as §1

[7] = system: common ragweed (Ambrosia elation); assay: Test B pre-/postemergence plant response; conditions: for Ragweed plant response rating: 8 g ai/ha
Procedure, shortened: as §1

[8] = system: bermudagrass (Cynodon dactylon); assay: Test B pre-/postemergence plant response; conditions: for Bermudagrass plant response rating: 8 g ai/ha
Procedure, shortened: as §1

kochia (Kochia scoparia) = assay: Test B pre-/postemergence plant response; conditions: for Kochia plant response rating: 8 g ai/ha
Procedure, shortened: as §1

[9] = system: Russian thistle (Salsola iberica); assay: Test B pre-/postemergence plant response; conditions: Preemergence; for Plant response rating, Russian Thistle: scale 0 to 100 (0 no effect, 100 complete control)
Procedure, shortened: as §1

[10] = system: goosegrass (Eleusine indica); assay: Test B pre-/postemergence plant response; conditions: for Goosegrass plant response rating: 8 g ai/ha
Procedure, shortened: as §1

[11] = system: ducksalad (Heteranthera limosa); assay: Test B flooded paddy test plant response
Procedure, shortened: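 Step one: raise plants to 2 leaves. Step two: flood pots 3 cm over the soil and apply compound into the water, keeping this depth. Step three: after 13–15 greenhouse days, score visually versus controls, 0–100, where 100 means complete control.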

[12] = Postemergence, 16 g ai/ha, scale 0 to 100
[13] = Postemergence, 31 g ai/ha, scale 0 to 100
[14] = Postemergence, 62 g ai/ha, scale 0 to 100, 0 no effect, 100 complete control
[15] = Preemergence, 16 g ai/ha, scale 0 to 100 (0 no effect, 100 complete control)
[16] = Preemergence, 31 g ai/ha, 0 to 100 scale, 0 no effect, 100 complete control
[17] = Preemergence, 62 g ai/ha, scale 0 to 100
[18] = Preemergence, 31 g ai/ha, scale 0 to 100 (0 no effect, 100 complete control)
[19] = Preemergence, 62 g ai/ha, 0 to 100 scale, 0 no effect, 100 complete control

Cn1ncc(O)c(-n2nc(-c3ccc(Cl)cc3)cc2C2CC2)c1=O [Compound 45]
Crabgrass, Large plant response rating ([1]; postemergence, 0-100 scale): 65 | Plant response rating, Crabgrass, Large [1, 12]: 80 | Plant response rating, Crabgrass, Large [1, 13]: 100 | Plant response rating, Crabgrass, Large [1, 14]: 100 | Plant response rating, Crabgrass, Large [1, 15]: 0 | Plant response rating, Crabgrass, Large [1, 16]: 0 | Plant response rating, Crabgrass, Large [1, 17]: 0 | Crabgrass, Large plant response rating ([1]; Preemergence, scale 0 to 100): 0 | Wheat plant response rating ([2]; postemergence, 0-100 scale): 60 | Plant response rating, Wheat [2, 12]: 85 | Plant response rating, Wheat [2, 13]: 85 | Plant response rating, Wheat [2, 14]: 98 | Plant response rating, Wheat [2, 15]: 30 | Plant response rating, Wheat [2, 18]: 70 | Plant response rating, Wheat [2, 19]: 95 | Wheat plant response rating ([2]; Preemergence, scale 0 to 100): 0 | Soybean plant response rating (soybean (Glycine max); 8 g ai/ha, postemergence, 0-100 scale): 0 | Plant response rating, Soybean (soybean (Glycine max); [12]): 0 | Plant response rating, Soybean (soybean (Glycine max); [13]): 0 | Plant response rating, Soybean (soybean (Glycine max); [14]): 0 | Plant response rating, Soybean (soybean (Glycine max); [15]): 0 | Plant response rating, Soybean (soybean (Glycine max); [17]): 65 | Corn plant response rating (corn (Zea mays); postemergence, 0-100 scale): 85 | Plant response rating, Corn (corn (Zea mays); [12]): 90 | Plant response rating, Corn (corn (Zea mays); [13]): 95 | Plant response rating, Corn (corn (Zea mays); [14]): 95 | Plant response rating, Corn (corn (Zea mays); [15]): 55 | Plant response rating, Corn (corn (Zea mays); [16]): 65 | Plant response rating, Corn (corn (Zea mays); [17]): 98 | Corn plant response rating (corn (Zea mays); Preemergence, scale 0 to 100): 0 | Cocklebur plant response rating ([3]; postemergence, 0-100 scale): 0 | Plant response rating, Cocklebur [3, 12]: 0 | Plant response rating, Cocklebur [3, 13]: 0 | Plant response rating, Cocklebur [3, 14]: 0 | Plant response rating, Cocklebur [3, 15]: 0 | Plant response rating, Cocklebur [3, 16]: 0 | Plant response rating, Cocklebur [3, 17]: 0 | Cocklebur plant response rating ([3]; Preemergence, scale 0 to 100): 0 | Plant response rating, Sunflower ([4]; 16 g ai/ha, scale 0 to 100 (0 no effect, 100 complete control)): 0 | Plant response rating, Sunflower ([4]; 31 g ai/ha, scale 0 to 100 (0 no effect, 100 complete control)): 0 | Plant response rating, Sunflower ([4]; 62 g ai/ha, scale 0 to 100): 0 | Sunflower plant response rating ([4]; 8 g ai/ha, scale 0 to 100): 0 | Surinam Grass plant response rating ([5]; postemergence, 0-100 scale): 75 | Plant response rating, Surinam Grass [5, 12]: 85 | Plant response rating, Surinam Grass [5, 13]: 98 | Plant response rating, Surinam Grass [5, 14]: 100 | Plant response rating, Surinam Grass [5, 15]: 20 | Plant response rating, Surinam Grass [5, 18]: 40 | Plant response rating, Surinam Grass [5, 19]: 90 | Surinam Grass plant response rating ([5]; Preemergence, scale 0 to 100): 0 | Lambsquarters plant response rating ([6]; postemergence, 0-100 scale): 0 | Plant response rating, Lambsquarters [6, 12]: 0 | Plant response rating, Lambsquarters [6, 13]: 0 | Plant response rating, Lambsquarters [6, 14]: 0 | Plant response rating, Lambsquarters [6, 15]: 0 | Plant response rating, Lambsquarters [6, 16]: 0 | Plant response rating, Lambsquarters [6, 17]: 0 | Lambsquarters plant response rating ([6]; Preemergence, scale 0 to 100): 0 | Ragweed plant response rating ([7]; postemergence, 0-100 scale): 0 | Plant response rating, Ragweed [7, 12]: 0 | Plant response rating, Ragweed [7, 13]: 0 | Plant response rating, Ragweed [7, 14]: 0 | Plant response rating, Ragweed [7, 15]: 0 | Plant response rating, Ragweed [7, 18]: 0 | Plant response rating, Ragweed [7, 17]: 0 | Ragweed plant response rating ([7]; Preemergence, scale 0 to 100): 0 | Bermudagrass plant response rating ([8]; postemergence, 0-100 scale): 60 | Plant response rating, Bermudagrass [8, 12]: 95 | Plant response rating, Bermudagrass [8, 13]: 98 | Plant response rating, Bermudagrass [8, 14]: 98 | Bermudagrass plant response rating ([8]; Preemergence, scale 0 to 100 (0 no effect, 100 complete control)): 0 | Plant response rating, Bermudagrass [8, 15]: 0 | Plant response rating, Bermudagrass [8, 16]: 0 | Plant response rating, Bermudagrass [8, 17]: 0 | Kochia plant response rating (kochia (Kochia scoparia); postemergence, 0-100 scale): 0 | Plant response rating, Kochia (kochia (Kochia scoparia); [12]): 0 | Plant response rating, Kochia (kochia (Kochia scoparia); [13]): 0 | Plant response rating, Kochia (kochia (Kochia scoparia); [14]): 0 | Plant response rating, Kochia (kochia (Kochia scoparia); [15]): 0 | Plant response rating, Kochia (kochia (Kochia scoparia); [16]): 0 | Plant response rating, Kochia (kochia (Kochia scoparia); [17]): 0 | Kochia plant response rating (kochia (Kochia scoparia); Preemergence, scale 0 to 100): 0 | Plant response rating, Russian Thistle ([9]; 16 g ai/ha): 0 | Plant response rating, Russian Thistle ([9]; 31 g ai/ha): 0 | Russian Thistle plant response rating ([9]; 8 g ai/ha, scale 0 to 100): 0 | Goosegrass plant response rating ([10]; postemergence, 0-100 scale): 65 | Plant response rating, Goosegrass [10, 12]: 70 | Plant response rating, Goosegrass [10, 13]: 80 | Plant response rating, Goosegrass [10, 14]: 95 | Plant response rating, Goosegrass [10, 15]: 0 | Plant response rating, Goosegrass [10, 16]: 0 | Plant response rating, Goosegrass [10, 17]: 0 | Goosegrass plant response rating ([10]; Preemergence, scale 0 to 100): 0 | Plant response rating, Ducksalad ([11]; Flood (flooded paddy test), 62 g ai/ha, scale 0 to 100, 0 no effect, 100 complete control): 0 | Plant response rating, Ducksalad ([11]; Flood (flooded paddy test), 125 g ai/ha, scale 0 to 100, 0 no effect, 100 complete control): 0 | Plant response rating, Ducksalad ([11]; Flood (flooded paddy test), 250 g ai/ha, scale 0 to 100, 0 no effect, 100 complete control): 75 | Plant response rating, Ducksalad ([11]; Flood, 31 g ai/ha, scale 0 to 100): 0
